We go through 30 molecules from US20260209214A1, “LSD1 MODULATORS” (RECURSION PHARMACEUTICALS, INC., priority 2022, published 2026).

This test addresses Recombinant human LSD1 (Homo sapiens, UniProt O60341). Nature of the test: LSD1 inhibition assay (HTRF LSD1 Histone H3K4 mono-demethylation assay, me1->me0). In kind it is biochemical. The settings on record: 20 nM recombinant human LSD1, 95 nM H3K4(me1) biotinylated peptide, 15 min preincubation, 60 min at 25° C., read-out: LSD1 inhibition IC50 (nM range). On the procedure: LSD1 biochemical activity was measured using the HTRF® LSD1 Histone H3K4 mono-demethylation assay (me1->me0). Briefly, the enzymatic buffer was prepared by addition of 50 mM Tris-HCl (Sigma cat #T2663-IL), 50 mM NaCl (ThermoFisher cat #AM9759) and 0.01% Tween 20 (ThermoFisher cat #J20605.AP) in distilled water (final pH 8.5). This buffer was supplemented with 10 μM FAD (Fisher Scientific cat #11411838) and 1 mM DTT (Sigma cat #D0632). For the assay, H3K4(me1) biotinylated peptide substrate (Anaspec, cat #64355) was added to provide a final assay concentration of 95 nM. The streptavidin-XL665 (Cisbio cat #610SAXLA) and H3K4 me0-Eu(K) antibody-cryptate (Cisbio, cat #61 KAOKAD) detection reagents were mixed according to the manufacturer's instructions. Test compounds were diluted in DMSO in a series of 10 semi-log step doses; 10 nL of each compound dose were dispensed in 384 well plates. Recombinant human LSD1 was diluted into enzymatic buffer to provide a final assay concentration of 20 nM and added to the tested compounds for 15 minutes. The reaction was started by addition of the substrate and incubated at 25° C. for 60 minutes. The detection reagents were added, and the plate was incubated in the dark for 90 minutes. Fluorescence was measured on an Envision 2103 plate reader with optical setup for […] in the HTRF mode. The ratio of acceptor and donor emission signals was calculated for each well. Percent inhibition values were calculated from the HTRF ratios at different doses and fitted to a 4-parameter logistic curve to determine IC50 values. […]

Broadly, the IC50 is the midpoint of a concentration-inhibition curve.

Molecules are shown by their SMILES.

For `N#Cc1ccc(-c2cccc(CC3CNCCO3)c2-c2ccns2)cc1F` (stereo not drawn) [Example 36, 3-fluoro-3′-[(morpholin-2-yl)methyl]-2′-(1,2-thiazol-5-yl)-[1,1′-biphenyl]-4-carbonitrile], the IC50 fell in the range of 10 to 25 nM.
The same measure for `CN1CCC12CCN(Cc1c(F)ccc(-c3ccc(C#N)c(F)c3)c1Cl)C2` (stereo not drawn) [Example 289, 2'-chloro-3,4'-difluoro-3'-({1-methyl-1,6-diazaspiro[3.4]octan-6-yl}methyl)-[1,1'-biphenyl]-4-carbonitrile]: 100 to 1000 nM.
The same measure for `N#Cc1ccc(-c2cc(CC3CNCCO3)ccc2N2CCC(O)(C3CC3)CC2)cc1F` (stereo not drawn) [Example 60, 2′-(4-cyclopropyl-4-hydroxypiperidin-1-yl)-3-fluoro-5′-[(morpholin-2-yl)methyl]-[1,1′-biphenyl]-4-carbonitrile]: 25 to 100 nM; for `CN1CCC12CCN(Cc1c(F)ccc(-c3ccc(C#N)c(F)c3)c1N1CCC1)C2` (stereo not drawn) [Example 239, 2'-(azetidin-1-yl)-3,4'-difluoro-3'-({1-methyl-1,6-diazaspiro[3.4]octan-6-yl}methyl)-[1,1'-biphenyl]-4-carbonitrile]: 25 to 100 nM; for `CN1CC2CN(Cc3cccc(-c4ccc(C#N)c(F)c4)c3C3CC3)CC21` (stereo not drawn) [Example 277, 2'-cyclopropyl-3-fluoro-3'-({6-methyl-3,6-diazabicyclo[3.2.0]heptan-3-yl}methyl)-[1,1'-biphenyl]-4-carbonitrile]: 25 to 100 nM.
The same measure for `CC1CCN(c2ccc(CN3[C@@H]4CC[C@H]3[C@@H](N)C4)cc2-c2ccc(C#N)c(F)c2)CC1` (racemic) [Example 259, 5'-{[(1S,2S,4R)-2-amino-7-azabicyclo[2.2.1]heptan-7-yl]methyl}-3-fluoro-2'-(4-methylpiperidin-1-yl)-[1,1'-biphenyl]-4-carbonitrile]: 10 to 25 nM.
`N#Cc1ccc(-c2cccc(CC3CNCCCO3)c2C2CC2)cc1F` (stereo not drawn) [Example 82, 2′-cyclopropyl-3-fluoro-3′-[(1,4-oxazepan-2-yl)methyl]-[1,1′-biphenyl]-4-carbonitrile]: the 50% inhibitory concentration (IC50) was 25 to 100 nM.
To `Cc1cc(Oc2ccc(CC3CNCCO3)cc2-c2ccc(C#N)c(F)c2)ccn1` (stereo not drawn) [Example 121, 3-fluoro-2′-[(2-methylpyridin-4-yl)oxy]-5′-[(morpholin-2-yl)methyl]-[1,1′-biphenyl]-4-carbonitrile] belongs 100 to 1000 nM; to `N#Cc1ccc(-c2cc(CC3CNCCO3)ccc2COc2cccnc2)cc1F` (stereo not drawn) [Example 106, 3-fluoro-5′-[(morpholin-2-yl)methyl]-2′-[(pyridin-3-yloxy)methyl]-[1,1′-biphenyl]-4-carbonitrile], 100 to 1000 nM.
The same measure for `Cn1nc2ccc(-c3ccc(CC4CNCCO4)cc3-c3ccc(C#N)c(F)c3)cc2c1Cl` (stereo not drawn) [Example 91, 2′-(3-chloro-2-methyl-2H-indazol-5-yl)-3-fluoro-5′-[(morpholin-2-yl)methyl]-[1,1′-biphenyl]-4-carbonitrile]: 25 to 100 nM; for `COCc1ccc(-c2ccc(CC3CNCCO3)cc2-c2ccc(C#N)c(F)c2)c(F)c1` (stereo not drawn) [Example 68, 3-fluoro-2′-[2-fluoro-4-(methoxymethyl)phenyl]-5′-[(morpholin-2-yl)methyl]-[1,1′-biphenyl]-4-carbonitrile]: 25 to 100 nM; for `N#Cc1ccc(-c2cc(CC3CNCCO3)ccc2-c2ccc(OCC3CC3)nc2)cc1F` (stereo not drawn) [Example 96, 2′-[6-(cyclopropylmethoxy)pyridin-3-yl]-3-fluoro-5′-[(morpholin-2-yl)methyl]-[1,1′-biphenyl]-4-carbonitrile]: 100 to 1000 nM.
To `N#Cc1ccc(-c2cccc(N3CCC(N)CC3)c2-c2cncs2)cc1F` [Example 115, 3'-(4-aminopiperidin-1-yl)-3-fluoro-2'-(1,3-thiazol-5-yl)-[1,1'-biphenyl]-4-carbonitrile] belongs 10 to 25 nM; to `N#Cc1ccc(-c2cc(CC3CNCCO3)ccc2N2CCC2)cc1F` (stereo not drawn) [Example 44, 2′-(azetidin-1-yl)-3-fluoro-5′-[(morpholin-2-yl)methyl]-[1,1′-biphenyl]-4-carbonitrile], 100 to 1000 nM.
Regarding `N#Cc1ccc(-c2cc(CC3CNCCO3)ccc2N2CCCC3(CCOC3)C2)cc1F` (stereo not drawn) [Example 118, 3-fluoro-5′-[(morpholin-2-yl)methyl]-2′-{2-oxa-7-azaspiro[4.5]decan-7-yl}-[1,1′-biphenyl]-4-carbonitrile], the IC50 is 100 to 1000 nM.
To `CN[C@]12CC[C@H](C1)N(Cc1cccc(-c3ccc(C#N)c(F)c3)c1C1CC1)C2` [Example 195, 2'-cyclopropyl-3-fluoro-3'-{[(1R,4R)-4-(methylamino)-2-azabicyclo[2.2.1]heptan-2-yl]methyl}-[1,1'-biphenyl]-4-carbonitrile] belongs 10 to 25 nM; to `Cc1cc(NCC2CNCCO2)c(Cl)c(-c2ccc(C#N)c(F)c2)c1` (stereo not drawn) [Example 89, 2′-chloro-3-fluoro-5′-methyl-3′-{[(morpholin-2-yl)methyl]amino}-[1,1′-biphenyl]-4-carbonitrile], more than 1000 nM.
The same measure for `Cn1cc(-c2c(CC3CNCCO3)cccc2-c2ccc(C#N)c(F)c2)cn1` (stereo not drawn) [Example 153, 3-fluoro-2′-(1-methyl-1H-pyrazol-4-yl)-3′-[(morpholin-2-yl)methyl]-[1,1′-biphenyl]-4-carbonitrile]: 25 to 100 nM; for `N#Cc1ccc(-c2cccc(CN3CCC4(CC3)CNC4)c2Cl)cc1F` [Example 339, 2'-chloro-3'-({2,7-diazaspiro[3.5]nonan-7-yl}methyl)-3-fluoro-[1,1'-biphenyl]-4-carbonitrile]: 25 to 100 nM.
The same measure for `N#Cc1ccc(-c2cc(CC3CNCCO3)ccc2N2CCC(O)(C(F)(F)F)CC2)cc1F` (stereo not drawn) [Example 151, 3-fluoro-2′-[4-hydroxy-4-(trifluoromethyl)piperidin-1-yl]-5′-[(morpholin-2-yl)methyl]-[1,1′-biphenyl]-4-]: 100 to 1000 nM; for `N#Cc1ccc(-c2cccc(C[C@@H]3CNCCO3)c2-c2cncs2)cc1F` (single isomer, unassigned) [Example 23]: 10 to 25 nM; for `N#Cc1ccc(-c2cc(CC3CNCCO3)ccc2N2CCC3(CCCO3)CC2)cc1F` (stereo not drawn) [Example 78, 3-fluoro-5′-[(morpholin-2-yl)methyl]-2′-{1-oxa-8-azaspiro[4.5]decan-8-yl}-[1,1′-biphenyl]-4-carbonitrile]: 100 to 1000 nM.
Regarding `CC(C)(O)Cc1ccc(-c2ccc(CC3CNCCO3)cc2-c2ccc(C#N)c(F)c2)c(F)c1` (stereo not drawn) [Example 104, 3-fluoro-2′-[2-fluoro-4-(2-hydroxy-2-methylpropyl)phenyl]-5′-[(morpholin-2-yl)methyl]-[1,1′-biphenyl]-4-carbonitrile], the 50% inhibitory concentration (IC50) lay in the range of 25 to 100 nM.
To `N#Cc1ccc(-c2cc(F)cc(CN3[C@H]4CC[C@@H]3[C@H](N)C4)c2C2CC2)cc1F` (single isomer, unassigned) [Example 223] belongs 10 to 25 nM; to `N#Cc1ccc(-c2cc(CC3CNCCO3)ccc2N2CCn3nc(C4CC4)cc3C2)cc1F` (stereo not drawn) [Example 97, 2′-{2-cyclopropyl-4H,5H,6H,7H-pyrazolo[1,5-a]pyrazin-5-yl}-3-fluoro-5′-[(morpholin-2-yl)methyl]-[1,1′-biphenyl]-4-carbonitrile], more than 1000 nM.
As for `N#Cc1ccc(-c2ccc(F)c(CN3C[C@]4(N)CC[C@H]3C4)c2-c2cnco2)cc1F` [Example 334, 3'-{[(1S,4S)-4-amino-2-azabicyclo[2.2.1]heptan-2-yl]methyl}-3,4'-difluoro-2'-(1,3-oxazol-5-yl)-[1,1'-biphenyl]-4-carbonitrile], the IC50 was in the range of 10 to 25 nM.
To `N#Cc1ccc(-c2cccc(C[C@@H]3CNCCO3)c2-c2ocnc2F)cc1` [Example 3, 2′-(4-fluoro-1,3-oxazol-5-yl)-3′-{[(2R)-orpholin-2-yl]methyl}-[1,1′-biphenyl]-4-carbonitrile] belongs 10 to 25 nM; to `N#Cc1ccc(-c2ccc(F)c(CN3C[C@]4(N)CC[C@H]3C4)c2C2CC2)cc1F` [Example 189, 3'-{[(1S,4S)-4-amino-2-azabicyclo[2.2.1]heptan-2-yl]methyl}-2'-cyclopropyl-3,4'-difluoro-[1,1'-biphenyl]-4-carbonitrile], 10 to 25 nM.
To `Cc1cccc(-c2ccc(CN3[C@@H]4CC[C@H]3[C@@H](N)C4)cc2-c2ccc(C#N)c(F)c2)n1` (racemic) [Example 256, 5'-{[(1S,2S,4R)-2-amino-7-azabicyclo[2.2.1]heptan-7-yl]methyl}-3-fluoro-2'-(6-methylpyridin-2-yl)-[1,1'-biphenyl]-4-carbonitrile] belongs 25 to 100 nM; to `C[C@]1(N)C[C@H]2CC[C@@H]1N2Cc1cccc(-c2ccc(C#N)c(F)c2)c1C1CC1` (racemic) [Example 229, 3'-{[(1S,2S,4R)-2-amino-2-methyl-7-azabicyclo[2.2.1]heptan-7-yl]methyl}-2'-cyclopropyl-3-fluoro-[1,1'-biphenyl]-4-carbonitrile], 25 to 100 nM.
